The target in series [1] is T1, Prostaglandin E synthase (Homo sapiens, UniProt O14684).
T1 sequence (O14684 whole entry): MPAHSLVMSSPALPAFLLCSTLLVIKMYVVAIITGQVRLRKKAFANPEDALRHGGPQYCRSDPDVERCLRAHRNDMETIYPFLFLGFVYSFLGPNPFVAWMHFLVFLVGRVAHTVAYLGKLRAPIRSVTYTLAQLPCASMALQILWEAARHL
As to the kind of experiment: Inhibition of human mPGES-1 expressed in 293E cells assessed as reduction in conversion of PGH2 to PGE2 after 1.5 min by LC/MS analysis. The class given is cell-based.

Series [2] has as its target T1, Prostaglandin E synthase. As to the kind of experiment: Inhibition of mPGES-1 in human A549 cells assessed as reduction in recombinant human interleukin-1 beta-induced PGE2 production preincubated for 30 mins measured after 18 hrs by ELISA. The class given is cell-based. Background: In an ELISA, binding on a coated surface is turned into a signal by an enzyme label.

In series [3] the target is T1, Prostaglandin E synthase.
Description: Inhibition of mPGES-1 in human whole blood assessed as reduction in LPS-induced PGE2 production preincubated for 30 mins followed by LPS stimulation for 20 to 24 hrs by LC/MS/MS analysis
A short description of series [4]: Drug metabolism in rat liver microsomes at 4 uM. In kind it is ADME. The note with it: read-out: Drug metabolism. A general note: Liver microsomes are vesicles of endoplasmic reticulum, rich in cytochrome P450 enzymes.
Series [5] in a line: Drug metabolism in dog liver microsomes at 4 uM. The class given is ADME, Canis lupus familiaris. The note with it: read-out: Drug metabolism.
Series [6] can be described thus: Drug metabolism in human liver microsomes at 4 uM. The class given is ADME. The note with it: read-out: Drug metabolism.
The target of a further series is CYP2C9 (Homo sapiens, UniProt P11712). Put plainly: Inhibition of CYP2C9 in human hepatic microsomes assessed as reduction in probe substrate metabolism at 10 uM. In kind it is ADME. The note with it: liver microsomes.
Sequence of CYP2C9 (P11712 whole entry): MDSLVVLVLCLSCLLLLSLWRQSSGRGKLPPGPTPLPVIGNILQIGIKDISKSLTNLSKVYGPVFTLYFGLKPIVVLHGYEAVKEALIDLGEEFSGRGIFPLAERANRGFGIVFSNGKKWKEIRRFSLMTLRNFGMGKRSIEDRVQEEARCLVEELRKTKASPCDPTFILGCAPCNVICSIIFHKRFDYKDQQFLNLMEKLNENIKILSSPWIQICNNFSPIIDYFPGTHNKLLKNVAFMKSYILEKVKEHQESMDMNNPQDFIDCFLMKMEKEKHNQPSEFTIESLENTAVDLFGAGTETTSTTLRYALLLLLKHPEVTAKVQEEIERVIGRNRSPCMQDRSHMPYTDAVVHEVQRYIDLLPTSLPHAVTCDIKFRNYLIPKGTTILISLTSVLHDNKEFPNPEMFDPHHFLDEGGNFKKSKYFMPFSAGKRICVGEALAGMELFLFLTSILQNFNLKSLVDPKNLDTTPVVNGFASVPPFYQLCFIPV
In a further series the target is CYP2D6 (Homo sapiens, UniProt P10635). As to the kind of experiment: Inhibition of CYP2D6 in human hepatic microsomes assessed as reduction in probe substrate metabolism at 10 uM. In kind it is ADME. The note with it: liver microsomes.
Sequence of CYP2D6 (P10635 whole entry): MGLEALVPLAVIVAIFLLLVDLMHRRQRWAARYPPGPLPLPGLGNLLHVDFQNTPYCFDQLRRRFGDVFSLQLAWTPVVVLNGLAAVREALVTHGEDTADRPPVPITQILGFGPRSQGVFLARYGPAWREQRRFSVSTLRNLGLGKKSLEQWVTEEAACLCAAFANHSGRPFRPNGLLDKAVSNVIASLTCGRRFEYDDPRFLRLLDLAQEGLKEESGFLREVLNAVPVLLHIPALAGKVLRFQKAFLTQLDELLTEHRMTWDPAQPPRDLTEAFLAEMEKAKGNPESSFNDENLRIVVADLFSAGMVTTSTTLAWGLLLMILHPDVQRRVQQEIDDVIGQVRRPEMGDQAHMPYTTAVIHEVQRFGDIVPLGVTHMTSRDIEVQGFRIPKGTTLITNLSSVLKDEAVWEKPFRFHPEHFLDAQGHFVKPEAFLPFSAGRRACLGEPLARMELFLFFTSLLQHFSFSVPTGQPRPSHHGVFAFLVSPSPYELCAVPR
In series [7] the target is T2, CYP3A4 (Homo sapiens, UniProt P08684). As to the kind of experiment: Inhibition of CYP3A4 in human hepatic microsomes assessed as reduction in probe substrate metabolism at 10 uM. The note with it: liver microsomes. In kind it is ADME.
T2 sequence (P08684 whole entry): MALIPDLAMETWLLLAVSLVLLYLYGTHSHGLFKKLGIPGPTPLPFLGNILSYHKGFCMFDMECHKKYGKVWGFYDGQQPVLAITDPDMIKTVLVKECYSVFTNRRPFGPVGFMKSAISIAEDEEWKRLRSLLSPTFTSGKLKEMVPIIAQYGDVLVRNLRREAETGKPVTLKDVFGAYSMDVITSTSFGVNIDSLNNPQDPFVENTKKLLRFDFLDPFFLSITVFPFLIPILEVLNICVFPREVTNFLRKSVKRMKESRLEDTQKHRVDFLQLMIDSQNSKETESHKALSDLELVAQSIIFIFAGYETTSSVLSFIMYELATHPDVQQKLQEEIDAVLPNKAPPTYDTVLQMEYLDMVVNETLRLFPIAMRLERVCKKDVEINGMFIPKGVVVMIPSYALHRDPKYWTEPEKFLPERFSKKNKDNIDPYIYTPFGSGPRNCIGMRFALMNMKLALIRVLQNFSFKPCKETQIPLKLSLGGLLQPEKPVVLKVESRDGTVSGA
Series [8] can be described thus: Clearance in Beagle dog at 1 mg/kg, iv. In kind it is ADME, organism-based, Canis lupus familiaris. The note with it: in vivo.
Series [9] can be described thus: Volume of distribution at steady state in Beagle dog at 1 mg/kg, iv. In kind it is ADME, organism-based, Canis lupus familiaris. The note with it: in vivo, read-out: Vdss.
The nature of series [10]: Oral bioavailability in Beagle dog at 15 mg/kg. The class given is ADME, organism-based, Canis lupus familiaris. The note with it: in vivo.
Series [11] in a line: Time at which plasma concentration remains above dog whole blood IC50 level in Beagle dog at 3 mg/kg, po. In kind it is ADME, organism-based, Canis lupus familiaris. The note with it: in vivo.
A short description of series [12]: Inhibition of rat mPGES-1.
For series [13], the target named is T3, Prostaglandin E synthase (Canis lupus familiaris, UniProt A0SYQ0).
T3 sequence (A0SYQ0 whole entry): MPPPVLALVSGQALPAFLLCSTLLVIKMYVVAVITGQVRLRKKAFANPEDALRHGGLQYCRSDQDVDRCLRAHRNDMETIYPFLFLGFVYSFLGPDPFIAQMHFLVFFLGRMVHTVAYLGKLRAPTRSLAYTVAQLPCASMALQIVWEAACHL
As to the kind of experiment: Inhibition of dog mPGES-1.

Series [14] deals with T3, Prostaglandin E synthase. As to the kind of experiment: Inhibition of mPGES-1 in dog whole blood. The class given is tissue-based.
Series [15] in a line: Clearance in rat at 1 mg/kg, iv. The note with it: in vivo. The class given is ADME, organism-based.
Series [16] in a line: Half life in rat at 1 mg/kg, iv. The class given is ADME, organism-based. The note with it: in vivo.
Series [17] in a line: Volume of distribution at steady state in rat at 1 mg/kg, iv. In kind it is ADME, organism-based. The note with it: in vivo, read-out: Vdss.
Series [18] in a line: Cmax in rat at 5 mg/kg, po. The class given is ADME, organism-based. More on the design: dose 5 mg/kg, route oral. The note with it: in vivo.
A short description of series [19]: Oral bioavailability in rat at 5 mg/kg. The class given is ADME, organism-based. The note with it: in vivo.
The target of series [20] is T2, CYP3A4. Put plainly: Time dependent inhibition of CYP3A4 in human hepatic microsomes assessed as reduction in probe substrate metabolism at 10 uM. The class given is ADME. The note with it: liver microsomes, read-out: TDI.
The target in series [21] is T1, Prostaglandin E synthase. As to the kind of experiment: Inhibition of mPGES-1 (unknown origin).
Series [22] in a line: Time at which plasma concentration remains above human whole blood IC50 level in human at 200 mg, po. The class given is ADME.

pIC50: −log10 of the molar value.

What is called pIC50 is −log10 of the IC50, conventionally taken in molar units. The clearance is the volume of plasma or blood freed of the substance per unit of time. Higher therefore signals a high capacity for elimination. Usually bioavailability stands for dose-corrected exposure relative to a reference, in per cent. Read a low bioavailability as poor availability. Broadly, the half-life is the time needed for the level to fall by half in the phase considered. Read a high half-life as slow loss. The term Cmax denotes the maximum level reached in the sampled fluid or tissue.

Consider `Cc1cccc2ccc(N3CC[C@H](C(=O)N[C@H]4CCCOC4)C(C)(C)C3)nc12`, for which the pIC50 on Prostaglandin E synthase [1] was 8.15; on Prostaglandin E synthase [2] it was 7.14; at Prostaglandin E synthase [3], 7.44.
As for `CC1(C)CN(c2ccc(C(F)(F)F)cc2)CC[C@H]1C(=O)N[C@H]1CCC[C@H](CO)C1`, the pIC50 was 6.30 on Prostaglandin E synthase [1] and 5.35 on Prostaglandin E synthase [2].
Consider `CC1(C)CN(c2ccc3cccc(Cl)c3n2)CC[C@@H]1C(=O)N[C@H]1CC[C@@H](CO)CC1`, for which the pIC50 was 8.40 at Prostaglandin E synthase [1], 7.52 at Prostaglandin E synthase [2] and 7.64 against Prostaglandin E synthase [3].
For `Cc1cccc2ccc(N3CC[C@H](C(=O)N[C@H]4CCOC4)C(C)(C)C3)nc12`, in that order: 8.22, 7.64 and 7.29.
In the case of `Cc1cccc2ccc(N3CC[C@H](C(=O)N[C@H]4CCO[C@H](CO)C4)C(C)(C)C3)nc12`, the pIC50 at Prostaglandin E synthase [1] was 8.70; at Prostaglandin E synthase [2], 8.30; in [12], 5.10; at Prostaglandin E synthase [13], 7.96; against Prostaglandin E synthase [14], 7.55 to 7.64; on Prostaglandin E synthase [3], 8.15. The metabolised at 4 µM in series [4] was found to be 16%; in series [5], 13%; in series [6] it was 20%. In addition, the inhibition at 10 µM stood at 15% on CYP2C9, 0% at CYP2D6, 10% at CYP3A4 [7] and 39% at CYP3A4 [20]. In addition, the clearance in series [8] was 3.62 mL/min/kg; in series [15], 14 mL/min/kg. The Vd in series [9] came to 1.6 L/kg; in [17], 2.3 L/kg. Further, the bioavailability in series [10] was found to be 74%; in [19], 100%. The same compound had a Time in [11] of 24 h. This compound had a half-life in [16] of 2.3 h. The compound further came in with a Cmax in [18] of 2050 nM.
Turning to `Cc1cccc2ccc(N3CC[C@H](C(=O)N[C@H]4CC[C@@H](CO)CC4)C(C)(C)C3)nc12`, the pIC50 is 9.00 at Prostaglandin E synthase [1], 8.70 at Prostaglandin E synthase [2] and 8.70 against Prostaglandin E synthase [3]. Moreover, the metabolised at 4 µM amounted to 64% in series [4], 60% in series [5] and 46% in [6]. The inhibition at 10 µM on CYP2C9 is 54%; on CYP2D6 it was 4%; at CYP3A4 [7], 35%; at CYP3A4 [20] it was 75%. The compound also had a clearance in [15] of 21 mL/min/kg. The same compound showed a half-life in series [16] of 2.6 h. In addition, the Vd in series [17] turned out to be 1.4 L/kg. This compound yielded a Cmax in series [18] of 1450 nM. In series [19], this compound showed a bioavailability of 54%.
In the case of `CC1(C)CN(c2ccc(C(F)(F)F)cc2)CC[C@@H]1C(=O)N[C@H]1CCC[C@H](CO)C1`, the results for the pIC50 on Prostaglandin E synthase [1], on Prostaglandin E synthase [2] and on Prostaglandin E synthase [3] were 8.52, 7.96 and 8.30, respectively.
The like results for `Cc1cccc2ccc(N3CC[C@H](C(=O)N[C@H](C)C(C)C)C(C)(C)C3)nc12` were, in that order, 7.92, 7.05 and 7.11.
In the case of `CC1(C)CN(c2ccc3cccc(Cl)c3n2)CC[C@H]1C(=O)N[C@H]1CC[C@@H](CO)CC1`, the pIC50 on Prostaglandin E synthase [1] was 5.43; on Prostaglandin E synthase [2], less than 5.00.
As for `Cc1cc2nc(N3CCC(C(=O)NC4CCCC4)CC3)n(-c3ccc(F)c(C)c3)c2cc1C`, the pIC50 against Prostaglandin E synthase [21] was 7.60.
For `Cc1cccc2ccc(N3CC[C@H](C(=O)N[C@H]4CCC[C@H](CO)C4)C(C)(C)C3)nc12`, the negative logarithm of the IC50 (pIC50) is 9.00 on Prostaglandin E synthase [1], 8.52 on Prostaglandin E synthase [2] and 9.00 at Prostaglandin E synthase [3]. Further, the figures for the metabolised at 4 µM in [4], in [5] and in series [6] were 73%, 57% and 50%, respectively. In addition, the inhibition at 10 µM on CYP2C9 came out at 64%; at CYP2D6, 0%; on CYP3A4 [7] it was 43%; on CYP3A4 [20], 82%. In series [15], this compound returned a clearance of 34 mL/min/kg. Further, the half-life in [16] is 0.6 h. In series [17], the Vd was 1.3 L/kg. The concentration in series [18] peaked (Cmax) at 1430 nM. In addition, the bioavailability in series [19] stood at 30%.
`Cc1ccc(-c2cc(C(F)(F)F)nn2-c2ccc(S(N)(=O)=O)cc2)cc1` [CELECOXIB]: in [22], the Time was in the range of 8 to 12 h.

(Values after ChEMBL document CHEMBL3856235, “Characterization of 3,3-dimethyl substituted N-aryl piperidines as potent microsomal prostaglandin E synthase-1 inhibitors” (Bioorg Med Chem Lett, 2016).)
